Legend:
[1] = target: T1, full-length beta-Catenin (Uniprot ID P35222) (Homo sapiens, UniProt P35222); assay: Fluorescence polarization IC50 (beta-catenin / 5FAM-TCF4 10-53 competition); type: binding; details: fluorescence polarization; read-out: beta-Catenin FP IC50
T1 construct: 10 nM full-length beta-Catenin (Uniprot ID P35222)
T1 sequence (P35222 1-781): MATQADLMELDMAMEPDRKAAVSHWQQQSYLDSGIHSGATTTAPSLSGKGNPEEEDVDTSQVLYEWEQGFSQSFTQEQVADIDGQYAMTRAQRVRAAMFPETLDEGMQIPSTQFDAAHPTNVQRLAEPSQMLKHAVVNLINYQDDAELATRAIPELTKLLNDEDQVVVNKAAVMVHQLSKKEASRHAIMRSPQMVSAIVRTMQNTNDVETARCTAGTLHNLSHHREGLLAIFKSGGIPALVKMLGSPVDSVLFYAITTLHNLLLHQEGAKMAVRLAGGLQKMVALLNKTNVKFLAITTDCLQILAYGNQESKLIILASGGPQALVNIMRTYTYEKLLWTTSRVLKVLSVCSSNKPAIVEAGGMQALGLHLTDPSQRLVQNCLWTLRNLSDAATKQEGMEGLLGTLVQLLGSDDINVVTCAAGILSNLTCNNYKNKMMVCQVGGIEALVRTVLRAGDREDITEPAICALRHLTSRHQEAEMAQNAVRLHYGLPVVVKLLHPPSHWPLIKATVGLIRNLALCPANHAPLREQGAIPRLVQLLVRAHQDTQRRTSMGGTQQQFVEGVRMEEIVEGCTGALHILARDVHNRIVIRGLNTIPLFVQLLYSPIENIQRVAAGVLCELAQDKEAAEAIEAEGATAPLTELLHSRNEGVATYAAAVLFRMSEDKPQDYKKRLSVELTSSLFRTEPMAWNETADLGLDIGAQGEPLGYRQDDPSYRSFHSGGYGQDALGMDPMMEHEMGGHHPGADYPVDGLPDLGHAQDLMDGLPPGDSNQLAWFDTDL

[2] = target: T2, beta-catenin/TCF4 engagement (Homo sapiens, UniProt P35222); assay: Nano-BRET target engagement assay (B-cat-Halo & TCF4-Luc in HEK293 cells); type: cell-based; details: absolute IC50; read-out: NanoBRET Abs IC50
T2 construct: expressed in transfected cells; host or cells: HEK293
T2 sequence (P35222 1-781): T1 sequence (P35222 1-781)

## CC(=O)N1CCC[C@]12CC=CCCCC1(CCCC=CCCCOC(=O)N3CC[C@@](C(=O)N[C@@H](Cc4ccsc4)C(=O)N[C@@H](Cc4csc5ccccc45)C(=O)N[C@@H](CCC(N)=O)C(N)=O)(C3)NC(=O)[C@H](CC(C)C)NC(=O)[C@H](Cc3ccccc3)NC(=O)[C@H](CCCCNC(=O)COCCOCCNC(=O)CC[C@@H](C)[C@H]3CC[C@H]4[C@@H]5CC[C@@H]6C[C@H](O)CC[C@]6(C)[C@H]5CC[C@]34C)NC(=O)[C@H](C)NC(=O)[C@H](CC(=O)O)NC(=O)[C@H](CC(=O)O)NC1=O)NC(=O)[C@H](CC(C)(C)C)NC(=O)[C@H](CC(=O)O)NC2=O (stereo partly drawn) [I-1474, Ac-PL3-Asp-Npg-B5-Asp-Asp-Ala-[lithocholate-PEG2]-Lys-Phe-Leu-PyrS2-3Thi-BztA-Gln-NH2]
[1]
  IC50: 41 nM
[2]
  IC50: > 20000 nM

## CC(=O)N1CCC[C@]12CC=CCCCC1(CCCC=CCCCOC(=O)N3CC[C@@](C(=O)N[C@@H](Cc4ccsc4)C(=O)N[C@@H](Cc4csc5ccccc45)C(=O)N[C@@H](CCC(N)=O)C(N)=O)(C3)NC(=O)[C@H](CC(C)C)NC(=O)[C@H](Cc3ccccc3)NC(=O)[C@H](CCCCNC(=O)COCCOCCNC(=O)C34CC5(C)CC(C)(CC(C)(C5)C3)C4)NC(=O)[C@H](C)NC(=O)[C@H](CC(=O)O)NC(=O)[C@H](CC(=O)O)NC1=O)NC(=O)[C@H](CC(C)(C)C)NC(=O)[C@H](CC(=O)O)NC2=O (stereo partly drawn) [I-1476, Ac-PL3-Asp-Npg-B5-Asp-Asp-Ala-[Me3AdamantC-PEG2]-Lys-Phe-Leu-PyrS2-3Thi-BztA-Gln-NH2]
[1]
  IC50: 16 nM
[2]
  IC50: > 20000 nM

## CC(=O)N1CCC[C@]12CC=CCCCC1(CCCC=CCCCOC(=O)N3CC[C@@](C(=O)N[C@@H](Cc4ccsc4)C(=O)N[C@@H](Cc4csc5ccccc45)C(=O)N[C@@H](CCC(N)=O)C(=O)N[C@@H](CCCCNC(=O)COCCOCCNC(=O)CC[C@@H](C)[C@H]4CC[C@H]5[C@@H]6CC[C@@H]7C[C@H](O)CC[C@]7(C)[C@H]6CC[C@]45C)C(N)=O)(C3)NC(=O)[C@H](CC(C)C)NC(=O)[C@H](Cc3ccccc3)NC(=O)[C@H](C)NC(=O)[C@H](C)NC(=O)[C@H](CC(=O)O)NC(=O)[C@H](CC(=O)O)NC1=O)NC(=O)[C@H](CC(C)(C)C)NC(=O)[C@H](CC(=O)O)NC2=O (stereo partly drawn) [I-1478, Ac-PL3-Asp-Npg-B5-Asp-Asp-Ala-Ala-Phe-Leu-PyrS2-3Thi-BztA-Gln-[lithocholate-PEG2]-Lys-NH2]
[1]
  IC50: 75 nM
[2]
  IC50: 17100 nM

## CC(=O)N1CCC[C@]12CC=CCCCC1(CCCC=CCCCOC(=O)N3CC[C@@](C(=O)N[C@@H](Cc4ccsc4)C(=O)N[C@@H](Cc4csc5ccccc45)C(=O)N[C@@H](CCC(N)=O)C(=O)N[C@@H](CCCCNC(=O)COCCOCCNC(=O)C45CC6(C)CC(C)(CC(C)(C6)C4)C5)C(N)=O)(C3)NC(=O)[C@H](CC(C)C)NC(=O)[C@H](Cc3ccccc3)NC(=O)[C@H](C)NC(=O)[C@H](C)NC(=O)[C@H](CC(=O)O)NC(=O)[C@H](CC(=O)O)NC1=O)NC(=O)[C@H](CC(C)(C)C)NC(=O)[C@H](CC(=O)O)NC2=O (stereo partly drawn) [I-1480, Ac-PL3-Asp-Npg-B5-Asp-Asp-Ala-Ala-Phe-Leu-PyrS2-3Thi-BztA-Gln-Me3AdamantC-PEG2]-Lys-NH2]
[1]
  IC50: 37 nM
[2]
  IC50: 9300 nM

## CC(=O)N1CCC[C@]12CC=CCCCC1(CCCC=CCCCOC(=O)N3CC[C@@](C(=O)N[C@@H](Cc4ccsc4)C(=O)N[C@@H](Cc4csc5ccccc45)C(=O)N[C@@H](CCC(N)=O)C(N)=O)(C3)NC(=O)[C@H](CC(C)C)NC(=O)[C@H](Cc3ccccc3)NC(=O)[C@H](C)NC(=O)[C@H](CCCN3CCC(F)(F)CC3)NC(=O)[C@H](CC(=O)O)NC(=O)[C@H](CC(=O)O)NC1=O)NC(=O)[C@H](CC(C)(C)C)NC(=O)[C@H](CC(=O)O)NC2=O (stereo partly drawn) [I-1482, Ac-PL3-Asp-Npg-B5-Asp-Asp-F2PipNva-Ala-Phe-Leu-PyrS2-3Thi-BztA-Gln-NH2]
[1]
  IC50: 7 nM
[2]
  IC50: 18000 nM

## CC(=O)N1CCC[C@]12CC=CCCCC1(CCCC=CCCCOC(=O)N3CC[C@@](C(=O)N[C@@H](Cc4ccsc4)C(=O)N[C@@H](Cc4csc5ccccc45)C(=O)N[C@@H](CCC(N)=O)C(N)=O)(C3)NC(=O)[C@H](CC(C)C)NC(=O)[C@H](Cc3ccccc3)NC(=O)[C@H](C)NC(=O)[C@H](CC(=O)N3CCOCC3)NC(=O)[C@H](CC(=O)O)NC(=O)[C@H](CC(=O)O)NC1=O)NC(=O)[C@H](CC(C)(C)C)NC(=O)[C@H](CC(=O)O)NC2=O (stereo partly drawn) [I-1483, Ac-PL3-Asp-Npg-B5-Asp-Asp-MorphAsn-Ala-Phe-Leu-PyrS2-3Thi-BztA-Gln-NH2]
[1]
  IC50: 22 nM
[2]
  IC50: > 20000 nM

## CC(=O)N1CCC[C@]12CC=CCCCC1(CCCC=CCCCOC(=O)N3CC[C@@](C(=O)N[C@@H](Cc4ccsc4)C(=O)N[C@@H](Cc4csc5ccccc45)C(=O)N[C@@H](CCC(N)=O)C(N)=O)(C3)NC(=O)[C@H](CC(C)C)NC(=O)[C@H](Cc3ccccc3)NC(=O)[C@H](C)NC(=O)[C@H](CC(=O)N3CCN(C)CC3)NC(=O)[C@H](CC(=O)O)NC(=O)[C@H](CC(=O)O)NC1=O)NC(=O)[C@H](CC(C)(C)C)NC(=O)[C@H](CC(=O)O)NC2=O (stereo partly drawn) [I-1484, Ac-PL3-Asp-Npg-B5-Asp-Asp-MePpzAsn-Ala-Phe-Leu-PyrS2-3Thi-BztA-Gln-NH2]
[1]
  IC50: 30 nM
[2]
  IC50: > 20000 nM

## CC(=O)N1CCC[C@]12CC=CCCCC1(CCCC=CCCCOC(=O)N3CC[C@@](C(=O)N[C@@H](Cc4ccsc4)C(=O)N[C@@H](Cc4csc5ccccc45)C(=O)N[C@@H](CCC(N)=O)C(N)=O)(C3)NC(=O)[C@H](CCCN3CCOCC3)NC(=O)[C@H](Cc3ccccc3)NC(=O)[C@H](C)NC(=O)[C@H](C)NC(=O)[C@H](CC(=O)O)NC(=O)[C@H](CC(=O)O)NC1=O)NC(=O)[C@H](CC(C)(C)C)NC(=O)[C@H](CC(=O)O)NC2=O (stereo partly drawn) [I-1485, Ac-PL3-Asp-Npg-B5-Asp-Asp-Ala-Ala-Phe-MorphNva-PyrS2-3Thi-BztA-Gln-NH2]
[1]
  IC50: 7 nM
[2]
  IC50: 25800 nM

## CC(=O)N1CCC[C@]12CC=CCCCC1(CCCC=CCCCOC(=O)N3CC[C@@](C(=O)N[C@@H](Cc4ccsc4)C(=O)N[C@@H](Cc4csc5ccccc45)C(=O)N[C@@H](CCC(N)=O)C(N)=O)(C3)NC(=O)[C@H](CCCN3CCC(F)(F)CC3)NC(=O)[C@H](Cc3ccccc3)NC(=O)[C@H](C)NC(=O)[C@H](C)NC(=O)[C@H](CC(=O)O)NC(=O)[C@H](CC(=O)O)NC1=O)NC(=O)[C@H](CC(C)(C)C)NC(=O)[C@H](CC(=O)O)NC2=O (stereo partly drawn) [I-1486, Ac-PL3-Asp-Npg-B5-Asp-Asp-Ala-Ala-Phe-F2PipNva-PyrS2-3Thi-BztA-Gln-NH2]
[1]
  IC50: 5 nM
[2]
  IC50: 17900 nM

## CC(=O)N1CCC[C@]12CC=CCCCC1(CCCC=CCCCOC(=O)N3CC[C@@](C(=O)N[C@@H](Cc4ccsc4)C(=O)N[C@@H](Cc4csc5ccccc45)C(=O)N[C@@H](CCC(N)=O)C(N)=O)(C3)NC(=O)[C@H](CC(=O)N3CCOCC3)NC(=O)[C@H](Cc3ccccc3)NC(=O)[C@H](C)NC(=O)[C@H](C)NC(=O)[C@H](CC(=O)O)NC(=O)[C@H](CC(=O)O)NC1=O)NC(=O)[C@H](CC(C)(C)C)NC(=O)[C@H](CC(=O)O)NC2=O (stereo partly drawn) [I-1487, Ac-PL3-Asp-Npg-B5-Asp-Asp-Ala-Ala-Phe-MorphAsn-PyrS2-3Thi-BztA-Gln-NH2]
[1]
  IC50: 7 nM
[2]
  IC50: 21500 nM

## CC(=O)N1CCC[C@]12CC=CCCCC1(CCCC=CCCCOC(=O)N3CC[C@@](C(=O)N[C@@H](Cc4ccsc4)C(=O)N[C@@H](Cc4csc5ccccc45)C(=O)N[C@@H](CCC(N)=O)C(N)=O)(C3)NC(=O)[C@H](CC(=O)N3CCN(C)CC3)NC(=O)[C@H](Cc3ccccc3)NC(=O)[C@H](C)NC(=O)[C@H](C)NC(=O)[C@H](CC(=O)O)NC(=O)[C@H](CC(=O)O)NC1=O)NC(=O)[C@H](CC(C)(C)C)NC(=O)[C@H](CC(=O)O)NC2=O (stereo partly drawn) [I-1488, Ac-PL3-Asp-Npg-B5-Asp-Asp-Ala-Ala-Phe-MePpzAsn-PyrS2-3Thi-BztA-Gln-NH2]
[1]
  IC50: 6 nM
[2]
  IC50: 30300 nM

## CC(=O)N1CCC[C@]12CC=CCCCC1(CCCC=CCCCOC(=O)N3CC[C@@](C(=O)N[C@@H](Cc4ccsc4)C(=O)N[C@@H](Cc4csc5ccccc45)C(=O)N[C@@H](CC(N)=O)C(N)=O)(C3)NC(=O)[C@H](CC(C)C)NC(=O)[C@H](Cc3ccccc3)NC(=O)[C@H](C)NC(=O)[C@H](C)NC(=O)[C@H](CC(=O)O)NC(=O)[C@H](CC(=O)O)NC1=O)NC(=O)[C@H](CC(C)(C)C)NC(=O)[C@H](CC(=O)O)NC2=O (stereo partly drawn) [I-1492, Ac-PL3-Asp-Npg-B5-Asp-Asp-Ala-Ala-Phe-Leu-PyrS2-3Thi-BztA-Asn-NH2]
[1]
  IC50: 5 nM
[2]
  IC50: 7300 nM

## CC(=O)N1CCC[C@]12CC=CCCCC1(CCCC=CCCCOC(=O)N3CC[C@@](C(=O)N[C@@H](Cc4ccsc4)C(=O)N[C@@H](Cc4csc5ccccc45)C(=O)N[C@@H](CO)C(N)=O)(C3)NC(=O)[C@H](CC(C)C)NC(=O)[C@H](Cc3ccccc3)NC(=O)[C@H](C)NC(=O)[C@H](C)NC(=O)[C@H](CC(=O)O)NC(=O)[C@H](CC(=O)O)NC1=O)NC(=O)[C@H](CC(C)(C)C)NC(=O)[C@H](CC(=O)O)NC2=O (stereo partly drawn) [I-1493, Ac-PL3-Asp-Npg-B5-Asp-Asp-Ala-Ala-Phe-Leu-PyrS2-3Thi-BztA-Ser-NH2]
[1]
  IC50: 10 nM
[2]
  IC50: 4900 nM

From US20240116985A1, “STAPLED PEPTIDES AND METHODS THEREOF” (priority 2020, published 2024)
